Test results taken from US7592363B2, “Indazoles” (Wyeth, priority 2004, dated 2009).

Molecule `COc1ccc(-c2c3cccc(C(F)(F)F)c3nn2CC(C)C)c(OC)c1` [Example 106, 3-(2,4-DIMETHOXYPHENYL)-2-ISOBUTYL-7-(TRIFLUOROMETHYL)-2H-INDAZOLE] has a melting point of 111 to 112 °C.
Molecule `Fc1ccc(-c2c3cccc(C(F)(F)F)c3nn2Cc2c(F)cc(F)cc2F)cc1` [Example 139, 3-(4-FLUOROPHENYL)-2-(2,4,6-TRIFLUOROBENZYL)-7-(TRIFLUOROMETHYL)-2H-INDAZOLE] has a melting point of 125 °C.
Work on `CC1CCCN(c2ccc(-c3c4cccc(C(F)(F)F)c4nn3Cc3c(F)cc(F)cc3F)cc2)C1` (stereo not drawn) yielded a melting point of 103 °C.
For `COc1ccc(-c2c3cccc(C(F)(F)F)c3nn2CC2CCCCC2)c(OC)c1` [Example 107, 2-(CYCLOHEXYLMETHYL)-3-(2,4-DIMETHOXYPHENYL)-7-(TRIFLUOROMETHYL)-2H-INDAZOLE], the melting point was 156 to 157 °C.
With `Fc1ccc(-c2c3cccc(N4CCCC4)c3nn2Cc2ccc(F)cc2F)cc1` [Example 426, 2-(2,4-DIFLUOROBENZYL)-3-(4-FLUOROPHENYL)-7-PYRROLIDIN-1-YL-2H-INDAZOLE] the melting point was 112 to 114 °C.
For `COC(=O)C[C@@H]1CCCN(c2ccc(-c3c4cccc(C(F)(F)F)c4nn3Cc3c(F)cc(F)cc3F)cc2)C1`, the melting point was 103 °C.
Molecule `COC(=O)C[C@H]1CCCN(c2ccc(-c3c4cccc(C(F)(F)F)c4nn3Cc3c(F)cc(F)cc3F)cc2)C1` has a melting point of 103 °C.
Molecule `COc1ccc(-c2c3cccc(C(F)(F)F)c3nn2C2CCC2)c(OC)c1` [Example 109, 2-CYCLOBUTYL-3-(2,4-DIMETHOXYPHENYL)-7-(TRIFLUOROMETHYL)-2H-INDAZOLE] has a melting point of 51 to 52 °C.
Molecule `CCC(CC)n1nc2c(C(F)(F)F)cccc2c1-c1ccc(OC)cc1OC` [Example 110, 3-(2,4-DIMETHOXYPHENYL)-2-(1-ETHYLPROPYL)-7-(TRIFLUOROMETHYL)-2H-INDAZOLE] has a melting point of 138 to 139 °C.
